Measurements published in patent US8552163B2, “Liver-targeting agents and their synthesis” (Johns Hopkins University, priority 2009, dated 2013).

Experiments:
ASGPR = target: T1, ASGPR (Mus musculus, UniProt P24721+P34927); test: Competitive binding assay with Eu-ASOR on murine hepatocyte (time-resolved fluorometry); details: for binding to ASGPR compared with that of YEE or YDD: relative to YEE or YDD, from the IC50 data of Table 1
T1 construct: host or cells: murine hepatocytes (purchased, plated in 24-well plates)
T1 sequence (P34927 1-284): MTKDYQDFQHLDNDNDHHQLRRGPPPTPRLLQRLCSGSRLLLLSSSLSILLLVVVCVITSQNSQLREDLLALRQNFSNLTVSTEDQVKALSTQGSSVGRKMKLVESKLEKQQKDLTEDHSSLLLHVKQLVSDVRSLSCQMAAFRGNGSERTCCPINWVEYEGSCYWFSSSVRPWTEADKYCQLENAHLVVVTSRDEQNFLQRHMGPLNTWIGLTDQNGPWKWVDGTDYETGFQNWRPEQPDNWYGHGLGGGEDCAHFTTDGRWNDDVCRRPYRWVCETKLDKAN
T1 sequence (P24721 1-301): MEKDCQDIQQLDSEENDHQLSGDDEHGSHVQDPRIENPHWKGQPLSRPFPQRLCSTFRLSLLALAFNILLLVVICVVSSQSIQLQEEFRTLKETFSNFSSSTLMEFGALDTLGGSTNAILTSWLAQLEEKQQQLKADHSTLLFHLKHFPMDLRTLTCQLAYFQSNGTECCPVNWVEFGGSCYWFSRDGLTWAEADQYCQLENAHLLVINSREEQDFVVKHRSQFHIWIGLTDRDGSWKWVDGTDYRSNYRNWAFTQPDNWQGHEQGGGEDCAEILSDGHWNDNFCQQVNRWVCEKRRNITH
Protocol: With Eu-asialo-orosomucoid (Eu-ASOR) as a reference material, the binding affinity of the multivalent glyco-ligands (DCM-Lys(ah-GalNAc)3, DCM-Lys(GahGalNAc)3, DCM-Lys(ahLac)3, AHA-Asp[DCM-Lys(ahLac)3]2) and murine hepatocyte can be determined by competitive assay to obtain IC50 (concentration of 50% inhibition), and the lower the IC50 is, the higher the binding affinity. The murine hepatocyte (Lonza Biotechnology Company, Walkersville, Md.) is plated in a 24-well plate in advance, and the reaction occurs in each well, into which (i) Eu-ASOR 10 nM (ii) hepatocyte basic medium with 5 mM calcium chloride, and (iii) five different concentrations of multivalent ligands of 1 μM-0.8 nM are added. After culturing with shaking for 1 hr in the cold, the unbound ligands are removed by washing with the hepatocyte basic medium containing calcium chloride. Time-resolved fluorometry (TRF) is performed, using an enhancement solution (15 μM β-naphthoyl trifluoroacetone, 50 μM tri-n-octyl-phosphine oxide, 0.1% triton X-100 in 0.1 M acetic acid, titrated with potassium hydrogen phthalate to pH 3.2). The enhancement solution reacts with Eu^3+ to form an Eu chelate, which can emit at 615 nm when excited at 340 nm. With the logarithm of the concentration of saccharide chain peptide as X axis, the emitted fluorescence value as Y axis, the fluorescence value without adding glycopeptide being set as 100%, the IC50 values of each ligand can be calculated accordingly.

[1] = as first reported by Lee (1983); cited from earlier work

Row | Structure (SMILES) | binding to ASGPR compared with that of YEE or YDD (ASGPR) | IC50 (ASGPR; competition with 10 nM Eu-ASOR, murine hepatocyte, 5 mM calcium chloride, 1 hr in the cold, read-out: IC50 (concentration of 50% inhibition), binding strength of saccharide chains and murine hepatocyte) [nM] | solubility [1]
1 | NCCCCCC(=O)NC(CC(=O)NCCCCC(C(=O)NCCCCCCOC1OC(CO)C(OC2OC(CO)C(O)C(O)C2O)C(O)C1O)N(CC(=O)NCCCCCCOC1OC(CO)C(OC2OC(CO)C(O)C(O)C2O)C(O)C1O)CC(=O)NCCCCCCOC1OC(CO)C(OC2OC(CO)C(O)C(O)C2O)C(O)C1O)C(=O)NCCCCC(C(=O)NCCCCCCOC1OC(CO)C(OC2OC(CO)C(O)C(O)C2O)C(O)C1O)N(CC(=O)NCCCCCCOC1OC(CO)C(OC2OC(CO)C(O)C(O)C2O)C(O)C1O)CC(=O)NCCCCCCOC1OC(CO)C(OC2OC(CO)C(O)C(O)C2O)C(O)C1O (stereo not shown) [AHA-Asp[DCM-Lys(ahLac)3]2] | the same binding strength as that of YEE or YDD |  | 
2 | CC(=O)N[C@H]1[C@H](OCCCCCCNC(=O)CNC(=O)CN(CC(=O)NCC(=O)NCCCCCCO[C@@H]2O[C@H](CO)[C@H](O)[C@H](O)[C@H]2NC(C)=O)[C@@H](CCCCN)C(=O)NCC(=O)NCCCCCCO[C@@H]2O[C@H](CO)[C@H](O)[C@H](O)[C@H]2NC(C)=O)O[C@H](CO)[C@H](O)[C@@H]1O [DCM-Lys(GahGalNAc)3] | 10 times | 1 | 
3 | CC(=O)N[C@H]1[C@H](OCCCCCCNC(=O)CC[C@H](NC(=O)CC[C@H](NC(=O)[C@@H](N)Cc2ccc(O)cc2)C(=O)NCCCCCCO[C@@H]2O[C@H](CO)[C@H](O)[C@H](O)[C@H]2NC(C)=O)C(=O)NCCCCCCO[C@@H]2O[C@H](CO)[C@H](O)[C@H](O)[C@H]2NC(C)=O)O[C@H](CO)[C@H](O)[C@@H]1O [YEE(ahGalNAc)3] |  |  | poor solubility
